Reference: patent publication US11505558B1, “Antiviral heterocyclic compounds” (Enanta Pharmaceuticals, Inc., priority 2019, dated 2022)

tested on: genotype A, "Long" strain RSV; experiment: RSV-A assay (CPE, ATPlite readout in Hep-2 cells); type: cell-based; details: human respiratory syncytial virus, HEp-2, Hep-2 cells, genotype A "Long" strain RSV, MOI 0.1; read-out: Human RSV-A (“Long” strain) EC50
In short: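 Hep-2 cells (8,000/well) received 2-fold serial compound dilutions in duplicate and RSV Long strain at MOI 0.1. After 5 days' incubation, cell health was read as ATP by ATPlite luminescence, with virus-only and uninfected controls defining max and minimum CPE; EC50 reported.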

| Compound | EC50 |
| --- | --- |
| C[C@]1(C(N)=O)COc2c1cc([C@@](O)(CNC(=O)c1ccc3cn[nH]c3c1)C(F)(F)F)nc2-c1ccc(F)cc1 [Example 587] | > 200 nM |
| C[C@]1(C(N)=O)COc2c1cc([C@@](O)(CNC(=O)c1cc(OC(F)(F)C(N)=O)c3ncccc3c1)C(F)(F)F)nc2-c1ccc(F)cc1 [Example 365] | < 200 nM |
| Cc1ccnc2c(O)cc(C(=O)NC[C@](O)(c3cc4c(c(-c5ccc(F)cc5)n3)OC[C@]4(C)C(N)=O)C(F)(F)F)cc12 [Example 250] | > 200 nM |
| C[C@]1(C(N)=O)COc2c1cc([C@@](O)(CNC(=O)c1cc3c(F)cc(F)cc3[nH]1)C(F)(F)F)nc2-c1ccc(F)cc1 [Example 596] | < 200 nM |
| CC(C)CCNC(=O)[C@@]1(C)COc2c1cc([C@@](O)(CNC(=O)c1cc(OC3CC3)c3ncccc3c1)C(F)(F)F)nc2-c1ccc(F)cc1 [Example 472] | > 200 nM |
| CN1Cc2cc(C(=O)NC[C@](O)(c3cc4c(c(-c5ccc(F)cc5)n3)OC[C@]4(C)C(=O)NCC(C)(C)O)C(F)(F)F)ccc2C1=O [Example 643] | < 200 nM |
| C[C@]1(C(N)=O)COc2c1cc([C@@](O)(CNC(=O)c1cnc3ncccc3c1)C(F)(F)F)nc2-c1ccc(F)cc1 [Example 239] | < 200 nM |
| CNC(=O)[C@@]1(C)COc2c1cc([C@@](O)(CNC(=O)c1cc(OCC(N)=O)c3ncccc3c1)C(F)(F)F)nc2-c1ccc(F)cc1 [Example 276] | < 200 nM |
| C[C@]1(C(=O)NCc2ccc[nH]2)COc2c1cc([C@@](O)(CNC(=O)c1cc(OC3CC3)c3ncccc3c1)C(F)(F)F)nc2-c1ccc(F)cc1 [Example 480] | < 200 nM |
| Cc1cc(-c2nc([C@@](O)(CNC(=O)c3cc(OC4CC4)c4ncccc4c3)C(F)(F)F)cc3c2OC[C@]3(C)C(=O)NCC(C)(C)O)ccc1F [Example 504] | > 200 nM |
| C[C@]1(C(N)=O)COc2c1cc([C@@](O)(CNC(=O)c1ccc3cc[nH]c3n1)C(F)(F)F)nc2-c1ccc(F)cc1 [Example 306] | > 200 nM |
| COc1cc(C(=O)NC[C@](O)(c2cc3c(c(-c4ccc(F)cc4)n2)OC[C@]3(C)C(=O)NC2CC2)C(F)(F)F)ccc1OCCO [Example 10] | < 200 nM |
| C[C@]1(C(N)=O)COc2c1cc([C@@](O)(CNC(=O)c1ccc3nc(N)oc3c1)C(F)(F)F)nc2-c1ccc(F)cc1 [Example 425] | < 200 nM |
| COc1cc(C(=O)NC[C@](O)(c2cc3c(c(-c4ccc(F)cc4)n2)OC[C@]3(C)C(N)=O)C(F)(F)F)ccc1-c1cocn1 [Example 199] | < 200 nM |
| CC(C)(O)C(F)(F)CNC(=O)[C@@]1(C)COc2c1cc([C@@](O)(CNC(=O)c1cc(OC3CC3)c3ncccc3c1)C(F)(F)F)nc2-c1ccc(F)cc1 [Example 488] | < 200 nM |
| C[C@]1(C(N)=O)COc2c1cc([C@@](O)(CNC(=O)c1ccc3nc(N)sc3c1)C(F)(F)F)nc2-c1ccc(Cl)cc1 [Example 448] | < 200 nM |
| COc1cc(C(=O)NC[C@](O)(c2cc3c(c(-c4ccc(F)cc4)n2)OC[C@@]3(F)C(N)=O)C(F)(F)F)ccc1OC1CC1 [Example 667] | > 200 nM |
| C[C@]1(C(N)=O)COc2c1cc([C@@](O)(CNC(=O)c1cnc3ccccc3n1)C(F)(F)F)nc2-c1ccc(F)cc1 [Example 237] | > 200 nM |
| C[C@]1(C(N)=O)COc2c1cc([C@@](O)(CNC(=O)c1cc(NC(=O)NC3CC3)c3ncccc3c1)C(F)(F)F)nc2-c1ccc(F)cc1 [Example 415] | < 200 nM |

| Compound | EC50 |
| --- | --- |
| C[C@]1(C(N)=O)COc2c1cc([C@@](O)(CNC(=O)c1cc(NS(C)(=O)=O)c3ncccc3c1)C(F)(F)F)nc2-c1ccc(F)cc1 [Example 394] | > 200 nM |
| C[C@]1(C(=O)NCCNC(N)=O)COc2c1cc([C@@](O)(CNC(=O)c1cc(OC3CC3)c3ncccc3c1)C(F)(F)F)nc2-c1ccc(F)cc1 [Example 478] | > 200 nM |
| C[C@]1(C(N)=O)COc2c1cc([C@@](O)(CNC(=O)c1cc(Cl)c3ncccc3c1)C(F)(F)F)nc2-c1ccc(F)c(Cl)c1 [Example 220] | < 200 nM |
| COc1cc(C(=O)NC[C@](O)(c2cc3c(c(-c4ccc(Cl)c(F)c4)n2)OC[C@]3(C)C(N)=O)C(F)(F)F)cc2sc(N)nc12 [Example 434] | < 200 nM |
| COc1cc(C(=O)NC[C@](O)(c2cc3c(c(-c4ccc(F)cc4)n2)OC[C@]3(C)C(N)=O)C(F)(F)F)cc2ccc(C(F)(F)F)nc12 [Example 224] | > 200 nM |
| Cc1ccc2cc(C(=O)NC[C@](O)(c3cc4c(c(-c5ccc(F)cc5)n3)OC[C@]4(C)C(N)=O)C(F)(F)F)cc(NC(=O)NC3CC3)c2n1 [Example 628] | > 200 nM |
| COc1cc(C(=O)NC[C@](O)(c2cc3c(c(-c4ccc(F)c(Cl)c4)n2)OC[C@]3(C)C(N)=O)C(F)(F)F)cc2cn(C)nc12 [Example 428] | < 200 nM |
| COc1cc(C(=O)NC[C@](O)(c2cc3c(c(-c4ccc(F)cc4)n2)OC[C@]3(C)C(=O)NC2(C)COC2)C(F)(F)F)cc2cccnc12 [Example 57] | < 200 nM |
| C[C@]1(CNCC2CC2)COc2c1cc([C@@](O)(CNC(=O)c1ccc3c(c1)OCCN3)C(F)(F)F)nc2-c1ccc(F)cc1 [Example 38] | > 200 nM |
| COc1cc(C(=O)NC[C@](O)(c2cc3c(c(-c4ccc(F)cc4)n2)OCC3(F)C(N)=O)C(F)(F)F)cn2cc(C3CC3)nc12 (some centres unmarked) [Example 672] | < 200 nM |
| COc1cc(C(=O)NC[C@](O)(c2cc3c(c(-c4ccc(F)cc4)n2)OC[C@]3(C)C(N)=O)C(F)(F)F)ccc1O [Example 310] | < 200 nM |
| COc1cc(C(=O)NCC(O)(c2cc3c(c(-c4ccc(F)cc4)n2)OC[C@]3(C)CN[C@@H](C)C2CC2)C(F)(F)F)cc2cccnc12 (some centres unmarked) [Example 24] | < 200 nM |
| C[C@]1(C(N)=O)COc2c1cc([C@@](O)(CNC(=O)c1ccc(OC3CC3)c(-c3ccc(=O)[nH]c3)c1)C(F)(F)F)nc2-c1ccc(F)cc1 [Example 132] | > 200 nM |
| COc1cc(C(=O)NC[C@](O)(c2cc3c(c(-c4ccc(F)cc4)n2)OC[C@]3(C)COC(=O)NC2CC2)C(F)(F)F)ccc1OCCO (single isomer, unassigned) [Example 7] | > 200 nM |
| Cc1ncccc1-c1cc(C(=O)NC[C@](O)(c2cc3c(c(-c4ccc(F)cc4)n2)OC[C@]3(C)C(N)=O)C(F)(F)F)ccc1OC1CC1 [Example 97] | > 200 nM |
| C[C@]1(C(N)=O)COc2c1cc([C@@](O)(CNC(=O)c1ccc(OC3CC3)c(-c3cncnc3)c1)C(F)(F)F)nc2-c1ccc(F)cc1 [Example 78] | < 200 nM |
| CN1Cc2cc(C(=O)NC[C@](O)(c3cc4c(c(-c5ccc(F)c(Cl)c5)n3)OC[C@]4(C)C(N)=O)C3CC3)ccc2C1=O [Example 645] | < 200 nM |
| CNc1nc2ccc(C(=O)NC[C@](O)(c3cc4c(c(-c5ccc(F)cc5)n3)OC[C@]4(C)C(N)=O)C(F)(F)F)cc2s1 [Example 439] | < 200 nM |
| COc1cc(C(=O)NCC(O)(c2cc3c(c(-c4ccc(F)cc4)n2)OC[C@]3(C)CN[C@@H](C)C2CC2)C(F)(F)F)ccc1OCCO (some centres unmarked) [Example 4] | < 200 nM |

| Compound | EC50 |
| --- | --- |
| COc1cc(C(=O)NC[C@](O)(c2cc3c(c(C#Cc4ccccc4)n2)OC[C@]3(C)C(N)=O)C(F)(F)F)ccc1OC1CC1 [Example 515] | > 200 nM |
| CO[C@@H](C)COc1cc(C(=O)NC[C@](O)(c2cc3c(c(-c4ccc(F)cc4)n2)OC[C@]3(C)C(N)=O)C(F)(F)F)cc2cccnc12 [Example 286] | > 200 nM |
| COc1cc(C(=O)NC[C@](O)(c2cc3c(c(-c4ccc(F)cc4)n2)OC[C@]3(C)C(N)=O)C(F)(F)F)cc2cc(Br)cnc12 [Example 618] | < 200 nM |
| C[C@]1(C(N)=O)COc2c1cc([C@@](O)(CNC(=O)c1cc(OC3CC3)c3nc(C(F)(F)F)ccc3c1)C(F)(F)F)nc2-c1ccc(F)cc1 [Example 225] | > 200 nM |
| CCc1ccc2cc(C(=O)NC[C@](O)(c3cc4c(c(-c5ccc(F)cc5)n3)OC[C@]4(C)C(N)=O)C(F)(F)F)cc(OC)c2n1 [Example 273] | < 200 nM |
| COc1cc(C(=O)NC[C@](O)(c2cc3c(c(-c4ccc(F)cc4)n2)OC[C@]3(F)C(N)=O)C(F)(F)F)ccc1OC1CC1 [Example 666] | < 200 nM |
| Cn1c(=O)oc2ccc(C(=O)NC[C@](O)(c3cc4c(c(-c5ccc(F)cc5)n3)OC[C@]4(C)C(N)=O)C(F)(F)F)cc21 [Example 328] | > 200 nM |
| Cc1ccc(-c2cc(C(=O)NC[C@](O)(c3cc4c(c(-c5ccc(F)cc5)n3)OC[C@]4(C)C(N)=O)C(F)(F)F)ccc2OC2CC2)nc1 [Example 107] | > 200 nM |
| C[C@]1(C(=O)NCCN)COc2c1cc([C@@](O)(CNC(=O)c1cc(OC3CC3)c3ncccc3c1)C(F)(F)F)nc2-c1ccc(F)cc1 [Example 463] | > 200 nM |
| C[C@]1(C(N)=O)COc2c1cc([C@@](O)(CNC(=O)c1cc(Oc3ccccn3)c3ncccc3c1)C(F)(F)F)nc2-c1ccc(F)cc1 [Example 386] | > 200 nM |
| C[C@]1(C(N)=O)COc2c1cc([C@@](O)(CNC(=O)c1ccc3nc(N)sc3c1)C(F)(F)F)nc2-c1ccc(F)c(Cl)c1 [Example 432] | < 200 nM |
| Cc1cnc2c(OC3CC3)cc(C(=O)NC[C@](O)(c3cc4c(c(-c5ccc(F)cc5)n3)OC[C@]4(C)C(=O)NCC(C)(C)O)C(F)(F)F)cc2c1 [Example 499] | < 200 nM |
| COc1ccc(C(=O)NC[C@](O)(c2cc3c(c(-c4ccc(F)cc4)n2)OC[C@]3(C)C(N)=O)C(F)(F)F)cc1C#N [Example 319] | < 200 nM |
| C[C@]1(C(N)=O)COc2c1cc([C@@](O)(CNC(=O)c1ccc(OC3CC3)c(-c3ccnnc3)c1)C(F)(F)F)nc2-c1ccc(F)cc1 [Example 135] | < 200 nM |
| CNC(=O)COc1cc(C(=O)NC[C@](O)(c2cc3c(c(-c4ccc(F)cc4)n2)OC[C@]3(C)C(N)=O)C(F)(F)F)cc2cccnc12 [Example 372] | < 200 nM |
| C[C@]1(C(N)=O)COc2c1cc([C@@](O)(CNC(=O)c1ccc(F)c(C#N)c1)C(F)(F)F)nc2-c1ccc(F)cc1 [Example 324] | > 200 nM |
| C[C@](F)(CNC(=O)c1cc(OC2CC2)c2ncccc2c1)c1cc2c(c(-c3ccc(F)cc3)n1)OC[C@]2(C)C(N)=O [Example 545] | > 200 nM |
| C[C@]1(C(N)=O)COc2c1cc([C@@](O)(CNC(=O)c1ccc(OC3CC3)c(-c3nccs3)c1)C(F)(F)F)nc2-c1ccc(F)cc1 [Example 125] | < 200 nM |
